Measurements as given in patent US20070128217A1 (priority 2003, published 2007).

Columns and labels:
[1] = system: antibodies in sera from SARS patients (sera 1a, 1b, 2, 6, 37, 62, London, SARS-yellow, SARS-green); format: binding, human; parameters: Binding of serum 6 to linear peptides of protein X1 of SARS-CoV Urbani / Binding of serum 37 to linear peptides of protein X1 of SARS-CoV Urbani / Binding of serum 6 to looped/cyclic peptide (PEPSCAN-ELISA) / Binding of serum 37 to looped/cyclic peptide (PEPSCAN-ELISA) / Binding of serum 37 to looped/cyclic peptides of protein X1 of SARS-CoV Urbani / Binding of serum 6 to linear peptides of protein X2 / Binding of serum 37 to linear peptides of protein X2 / Binding of serum 37 to looped/cyclic peptides of protein X2 of SARS-CoV Urbani / Binding of serum 6 to linear peptides of protein M of SARS-CoV Urbani / Binding of serum 37 to linear peptides of protein M of SARS-CoV Urbani / Binding of serum 6 to looped/cyclic peptides of protein M of SARS-CoV Urbani / Binding of serum 37 to looped/cyclic peptides of protein M of SARS-CoV Urbani / Binding of serum 6 to linear peptides of protein X3 of SARS-CoV Urbani / Binding of serum 37 to linear peptides of protein X3 of SARS-CoV Urbani / Binding of serum 37 to looped/cyclic peptides of protein X3 of SARS-CoV Urbani / Binding of serum 6 to linear peptides of protein X4 of SARS-CoV Urbani / Binding of serum 37 to linear peptides of protein X4 of SARS-CoV Urbani / Binding of serum 37 to looped/cyclic peptides of protein X4 of SARS-CoV Urbani / Binding of serum 6 to linear peptides of protein X5 of SARS-CoV Urbani / Binding of serum 37 to linear peptides of protein X5 of SARS-CoV Urbani / Binding of serum 37 to looped/cyclic peptides of protein X5 of SARS-CoV Urbani / Binding of serum 6 to linear peptides of protein N of SARS-CoV Urbani / Binding of serum 37 to linear peptides of protein N of SARS-CoV Urbani / Binding of serum 6 to linear peptide (PEPSCAN-ELISA) / Binding of serum 1a to looped/cyclic peptides of protein N of SARS-CoV Urbani / Binding of serum 1b to looped/cyclic peptides of protein N of SARS-CoV Urbani / Binding of serum 2 to looped/cyclic peptides of protein N of SARS-CoV Urbani / Binding of serum 6 to looped/cyclic peptides of protein N of SARS-CoV Urbani / Binding of serum 37 to looped/cyclic peptides of protein N of SARS-CoV Urbani / Binding of serum 62 to looped/cyclic peptides of protein N of SARS-CoV Urbani / Binding of serum London to looped/cyclic peptides of protein N of SARS-CoV Urbani / Binding of serum SARS-green to looped/cyclic peptides of protein N of SARS-CoV Urbani: unit not given here
[2] = system: control sera (pooled serum of ten healthy LUMC hospital workers; commercial negative donor pooled serum from the Dutch bloodbank); format: binding, human; parameters: Binding of Control serum LUMC to linear peptides / Binding of Control serum Blood-bank to linear peptides / Binding of Control serum LUMC to looped peptides / Binding of Control Serum Blood-Bank to Looped peptides / Binding of Control serum LUMC to linear peptides of the protein M of SARS-CoV Urbani / Binding of Control serum Blood-bank to linear peptides of the protein M of SARS-CoV Urbani / Binding of Control serum LUMC to looped peptides of the protein M of SARS-CoV Urbani / Binding of Control Serum Blood-Bank to Looped peptides of the protein M of SARS-CoV Urbani: unit not given here
[3] = system: rabbit serum obtained by immunizing a rabbit with the SARS-CoV strain Frankfurt 1; format: binding; parameters: Binding of a rabbit serum to linear peptides / Binding of a rabbit serum to looped peptides / Rabbit serum linear peptides / Rabbit serum looped peptides / Binding of a rabbit serum to linear peptides of protein N of SARS-CoV Urbani (Rabbit serum linear peptides) / Binding of a rabbit serum to looped/cyclic peptides of protein N of SARS-CoV Urbani (Rabbit serum looped peptides): unit not given here

## QIQLSLLKVTAFQHQ
[1]
  Binding of serum 1a to linear peptides of protein X2: 0.5
  Binding of serum 1a to looped/cyclic peptides of protein X2 of SARS-CoV Urbani: 0.6
  Binding of serum 1b to linear peptides of protein X2: 0.4
  Binding of serum 1b to looped/cyclic peptides of protein X2 of SARS-CoV Urbani: 0.5
  Binding of serum 2 to linear peptides of protein X2: 0.4
  Binding of serum 2 to looped/cyclic peptides of protein X2 of SARS-CoV Urbani: 0.4
  Binding of serum 6 to linear peptides of protein X2: 0.4
  Binding of serum 6 to looped/cyclic peptides of protein X2 of SARS-CoV Urbani: 0.6
  Binding of serum 37 to linear peptides of protein X2: 0.6
  Binding of serum 37 to looped/cyclic peptides of protein X2 of SARS-CoV Urbani: 0.4
  Binding of serum 62 to linear peptides of protein X2: 0.3
  Binding of serum 62 to looped/cyclic peptides of protein X2 of SARS-CoV Urbani: 0.6
  Binding of serum London to linear peptides of protein X2: 0.3
  Binding of serum London to looped/cyclic peptides of protein X2 of SARS-CoV Urbani: 0.7
  Binding of serum SARS-green to linear peptides of protein X2: 0.2
  Binding of serum SARS-green to looped/cyclic peptides of protein X2 of SARS-CoV Urbani: 0.4
  Binding of serum SARS-yellow to linear peptides of protein X2: 0.4
  Binding of serum SARS-yellow to looped/cyclic peptides of protein X2 of SARS-CoV Urbani: 0.6
[2]
  Binding of Control Serum Blood-Bank to Looped peptides: 0.6
  Binding of Control serum Blood-bank to linear peptides: 0.4
  Binding of Control serum LUMC to linear peptides: 0.7
  Binding of Control serum LUMC to looped peptides: 0.6
[3]
  Binding of a rabbit serum to linear peptides: 0.6
  Binding of a rabbit serum to looped peptides: 0.5

## QITTDTGIENATFFI
[1]
  Binding of serum 1a to linear peptides of protein X1 of SARS-CoV Urbani: 0.7
  Binding of serum 1a to looped/cyclic peptides of protein X1 of SARS-CoV Urbani: 0.7
  Binding of serum 1b to linear peptides of protein X1 of SARS-CoV Urbani: 0.6
  Binding of serum 1b to looped/cyclic peptides of protein X1 of SARS-CoV Urbani: 0.7
  Binding of serum 2 to linear peptides of protein X1 of SARS-CoV Urbani: 0.4
  Binding of serum 2 to looped/cyclic peptides of protein X1 of SARS-CoV Urbani: 0.6
  Binding of serum 6 to linear peptides of protein X1 of SARS-CoV Urbani: 0.4
  Binding of serum 6 to looped/cyclic peptides of protein X1 of SARS-CoV Urbani: 0.5
  Binding of serum 37 to linear peptides of protein X1 of SARS-CoV Urbani: 0.6
  Binding of serum 37 to looped/cyclic peptides of protein X1 of SARS-CoV Urbani: 1.0
  Binding of serum 62 to linear peptides of protein X1 of SARS-CoV Urbani: 0.4
  Binding of serum 62 to looped/cyclic peptides of protein X1 of SARS-CoV Urbani: 0.9
  Binding of serum London to linear peptides of protein X1 of SARS-CoV Urbani: 0.3
  Binding of serum London to looped/cyclic peptides of protein X1 of SARS-CoV Urbani: 0.3
  Binding of serum SARS-green to linear peptides of protein X1 of SARS-CoV Urbani: 0.3
  Binding of serum SARS-green to looped/cyclic peptides of protein X1 of SARS-CoV Urbani: 0.5
  Binding of serum SARS-yellow to linear peptides of protein X1 of SARS-CoV Urbani: 0.3
  Binding of serum SARS-yellow to looped/cyclic peptides of protein X1 of SARS-CoV Urbani: 0.5
[2]
  Binding of Control Serum Blood-Bank to Looped peptides: 0.5
  Binding of Control serum Blood-bank to linear peptides: 0.5
  Binding of Control serum LUMC to linear peptides: 0.6
  Binding of Control serum LUMC to looped peptides: 0.8
[3]
  Binding of a rabbit serum to linear peptides: 0.1
  Binding of a rabbit serum to looped peptides: 1.5
